# Reference: patent US7892767B2, “Phosphospecific chemokine receptor antibodies” (Washington University in St. Louis, priority 2005, dated 2011)
# Assays:
# Nf1+/+ astrocytes = assay: Cell number by trypan blue exclusion, Nf1+/+ astrocytes; type: cell-based, mouse; conditions: CXCL12 0.1 ug/ml (≈10 nM), 24 hours, vs untreated controls
# Method: Culture and treatment of primary astrocytes. Primary cultures of astrocytes were prepared from post-natal day two Nf1^flox/flox mice as previously described (134) and in accordance with established Animal Studies Protocols at Washington University School of Medicine. Cultures were infected with adenovirus containing either Cre recombinase (Nf1−/−) or LacZ (Nf1+/+). Primary cultures of astrocytes were grown under standard adherent conditions in serum free media (DMEM/F12 or Neurobasal (Gibco-BRL)) in the presence or absence of 0.1 μg/ml CXCL12 (Peprotech) and 10 μM Forskolin for 24 hours, as indicated. Cell number was determined after 24 hours by trypan blue exclusion and the growth effects of CXCL12 were derived as follows: ((cell number in the presence of CXCL12—cell number cell in the absence of CXCL12)/cell number in the absence of CXCL12)×100.)
# To determine the biological significance of CXCR4 activation to NF1 glioma biology, we next sought to evaluate the regulation of CXCL12 growth effects by neurofibromin in astrocytes. While the true cell of origin of astrocytomas remains unknown, we utilized primary cultures of cortical astrocytes as a model of a normal counterpart to astrocytoma cells. Astrocytes were derived from Nf1^flox/flox mice and rendered Nf1+/+ or Nf1−/− by infection with adenovirus encoding LacZ or Cre recombinase, respectively.
# Nf1−/− astrocytes = assay: Intracellular cAMP by ELISA, Nf1−/− astrocytes; type: cell-based, mouse
# Method: cAMP measurements. cAMP was measured by ELISA (Cayman Chemical Company, Ann Arbor, Mich. or Assay Designs, Ann Arbor, Mich.). Briefly, astrocyte cultures were lysed in 0.1 N HCl. After the removal of cellular debris, soluble cellular extract was dried down and resuspended in EIA buffer. Experimental samples and cAMP standard curve were acetylated to increase the sensitivity of the assay and incubated with cAMP ACHe tracer and cAMP EIA anti-serum overnight at 4° C. according to the manufacturer's instructions. After extensive washing, bound antibody was measured by spectrophotometric analysis. Concentrations of cAMP were derived from comparison with standard curve according to manufacturer's instructions.
# We evaluated the time dependent changes in intracellular cAMP in Nf1+/+ and Nf1−/− astrocytes after exposure to 0.1 μg/ml CXCL12. […] However, in Nf1+/+ astrocytes, intracellular levels of cAMP rapidly recovered to baseline and oscillated between baseline and 40% of baseline over the 45-minute experimental period (FIG. 10B).
# We hypothesized that if cooperative signaling between Nf1 loss and CXCR4 activation promotes tumor formation through the suppression of cAMP, then agents that alter intracellular cAMP should modulate CXCL12 responses. We treated astrocytes with the adenylyl cyclase (AC) activator forskolin in the presence and absence of CXCL12. […] In these experiments, forskolin elevated intracellular cAMP levels in both Nf1+/+ and Nf1−/− astrocytes with peak values of 17.8+/−0.4 and 19.4+/−4.5 pmol/mg of protein, respectively, after 24 hours of treatment. The effect of forskolin was not abrogated by co-treatment with CXCL12. Under these conditions, cAMP levels were 17.9+/−2.5 and 10.4+/−5.8 pmol/mg of total protein in Nf1+/+ and Nf1−/− astrocytes, respectively. […] The effect of forskolin on CXCL12-mediated Nf1−/− apoptosis was evidenced by changes in the percentage of Nf1−/− astrocytes in the sub-G0 fraction of the cell cycle (FIG. 11B). Thus while astrocyte growth is dependent upon MEK and PI3 kinase activity, CXCL12-induced Nf1−/− astrocyte growth requires the suppression of intracellular cAMP levels.
# U87 glioblastoma cells = assay: Intracellular cAMP by ELISA, U87 glioblastoma cells; type: cell-based, human; conditions: 1 μg/ml CXCL12
# Method: (§1) Growth factor and drug treatment. Following serum-starvation for 24 hours, astrocytes, granule cells, U87 cells and Daoy cells, were treated with 1 μg/ml CXCL12 (PeproTech), […] AMD3465 (kind gift from Simon Fricker, AnorMED, Langley, BC, Canada) (200 μM Rolipram (Sigma), or 10 μM Forskolin (Sigma) as indicated.
# cAMP measurement in cell culture. cAMP concentration was measured using a Correlated-EIA™. Enzyme Immunoassay Kit (Assay Designs Inc. MI) according to the manufacturer's instructions. Briefly, U87 or Daoy cells were serum-starved for 24 hours, and treated with CXCL12 (1 μg/ml), Rolipram (200 μM), or forskolin (10 μM). Cells were lysed in 0.1M HCL and particulate matter was removed by centrifugation at >600×g for 10 min. The supernatants were dried down and resuspended in assay buffer.
# (§2) Determination of cAMP concentration. Competitive immunoassay for cAMP concentration was performed exactly as directed by the manufacturer. Absorbance at 405 nm was measured and cAMP concentrations were determined by calculation based on a standard curve. Protein concentrations were measured by colormetric assay (Bio-Rad, Hercules, Calif.) according to the manufacturer's directions. cAMP values were normalized to protein for each sample individually.
# cortical astrocytes = assay: Intracellular cAMP by ELISA, primary cortical astrocytes; type: cell-based, mouse; conditions: 1 μg/ml CXCL12
# Method: Primary astrocyte cultures. Primary astrocytes were cultured from 1 to 3-day-old BALB/C mice as described (57). The cortices were triturated into single cells in minimal essential medium (Invitrogen) containing 10% FCS, and then plated onto 75 cm^2 T-flasks (0.5 hemisphere/flask) for 10-14 days. Astrocytes were prepared by vigorous shaking of T-flasks overnight, removal of non-adherent cells, and isolation of the remaining adherent cells, with 0.1% trypsin.
# as §1, §2
# [1] = system: PDE4A-expressing U87 cells; assay: Viable cell number, PDE4A-expressing U87 cells; type: cell-based, human; conditions: CXCL12 1 μg/ml, AMD 3465 2.5 μg/ml, Rolipram 200 μM
# Method: (§3) PDE4A expression. U87 and Daoy cells (15,000 cells) were transiently transfected for 48 h with a plasmid encoding a transgene for the tet-off transactivator (tTA) alone (kind gift from Dr. Louis Muglia, Washington University School of Medicine, St. Louis, Mo.), a plasmid containing a transgene for tet-off regulated expression of phosphodiesterase 4A (PDE4A) alone (kind gift from Dr. James Cherry, Boston University, Boston, Mass.), or a combination of both plasmids, using lipofectamine (Invitrogen) according to the manufacturer's instructions. Plasmid DNA (2 μg) was mixed with lipofectamine (5 μl) per 35 mm^2 dish. Transfection proceeded for 9 hours prior to exchanging transfection media for αMEM supplemented with 10% FCS.
# [2] = system: PDE4A-expressing Daoy cells; assay: Viable cell number, PDE4A-expressing Daoy cells; type: cell-based, human; conditions: CXCL12 1 μg/ml, AMD 3465 2.5 μg/ml, Rolipram 200 μM
# Method: as §3
substance,measurement,setting,value
CXCL12: chemokine ligand of CXCR4 (Peprotech),decrease in cell number,Nf1+/+ astrocytes,10+/−5%
same,integrated area under the cAMP curve,"Nf1−/− astrocytes; 0.1 μg/ml CXCL12, 45-minute period",1.96
same,intracellular cAMP in Nf1−/− astrocytes relative to Nf1+/+ astrocytes,"Nf1−/− astrocytes; 0.1 μg/ml CXCL12, from areas under the curves",approximately 73%
same,cyclic AMP levels after CXCL12,U87 glioblastoma cells,rapidly declined
same,reduction in intracellular cAMP as compared to astrocytes (area under the curve),U87 glioblastoma cells,45%
same,"cAMP, lower level of fluctuation",cortical astrocytes,40 % of baseline
same,effect on cell number,[1],no longer any benefit
same,effect on cell number,[2],no longer any benefit
